In patent US20060183733A1, “Treating microvasculature diseases with acetyl cholinesterase inhibitors” (priority 2005, published 2006):
Values joined by “and” are separate entries in the source; they are usually repeats but may differ in a detail not shown here. Identical values can stand only once. “Also recorded” adds a separate entry of the source.

Legend:
[1] = tested on: patients with myofascial pain / fibromyalgia; assay: Patient case histories: fibromyalgia / myofascial pain syndrome; type: in vivo, human; conditions: donepizil 5 mg daily
Text: The present invention provides a method for treating fibromyalgia and myofascial pain syndrome by increasing tissue levels of acetylcholine. Acetylcholine is the neurotransmitter of the parasympathic nervous system. The inventive method increases the relative amount of parasympathetic transmission and thereby facilitates resolution of the pain areas and diminishes the need for narcotics and polypharmacy. The reduction in the use of narcotics, NSAIDs, and tricyclic antidepressants and other medications used for pain having their deleterious side effects is a major benefit. By administration of acetyl cholinesterase inhibitor, the relative concentrations of acetylcholine are increased and available to propagate the impulses of the parasympathic nervous systems and within the non-neuronal acetylcholine receptors diminishing pain and spasms. […] The influence of non-neuronal acetylcholine receptors affected by enhanced levels of acetylcholine produces a reduction in pro-inflammatory mediators and increased blood flow to the nerve fibers involved in pain transmission. The net effect is a reduction in inflammation and improved blood flow to the vasovasorum of the affected nerves reducing the painful sensations.

[2] = tested on: patients with Parkinson's disease; conditions: donepizil decreased from 10 mg to 5 mg daily
[3] = tested on: patients with peripheral vascular disease and diabetes mellitus; assay: Patient case histories: microvascular disease / vascular insufficiency; type: in vivo, human; conditions: for side effects: donepizil 5-10 mg daily
Text: In summary, vascular insufficiency from diabetes is associated with compromise of the microvascular circulation. Treatment with an effective dose of an acetylcholinesterase inhibitor raises the relative concentration of acetylcholine promoting vasodilitation of the microcirculation (end arterioles) through stimulation of neuronal and non-neuronal acetylcholine receptors in the intima of the blood vessels. The beneficial effects of promoting vasodilitation and enhanced tissue perfusion correcting the dystrophic changes and alleviating ischemic pain and ulcers is readily apparent in this series of patients.
The present invention provides a method for the medical management of peripheral vascular disease. The management of peripheral vascular disease with acetylcholinesterase inhibitor addresses the central dilemma in vascular perfusion of the lower extremities. By increasing the relative concentration of acetylcholine, the parasympthetic nervous system is enhanced, improving blood flow at the tissue level by relaxation of the small end arterioles and improving perfusion therefore decreasing vascular edema, enhancing resolution of trohpic ulcers and alleviating rest pain and claudication complaints. The parasympathetic nervous system controls vascular beds in the small arterioles and by increasing the available acetylcholine, dilatation occurs and blood flow improves. By treatment with acetylcholinesterase inhibitors the end results in improved vascular blood supply, decreased congestion at the small arterioles level and improved blood supply. This is particularly necessary in diabetic patients. The presence of non-neuronal acetylcholine receptors with the intima of blood vessels at the microvascular level represents a second physiologic mechanism whereby dilatation of small blood vessels is facilitated by the use of an acetylcholinesterase inhibitor. This latter mechanism owing to the sensitive nature of the cholinesterases associated with the non neuronal acetylcholine system provides sustained cholinergic activity impacting the microvascular circulation and improving perfusion at the critical end arteriole-capillary-venule level.

[4] = tested on: patients with chronic renal insufficiency; assay: Patient case histories: chronic renal insufficiency (serum creatinine, BUN); type: in vivo, human
Text: To postpone or avoid the sequelae of chronic renal insufficiency, treatment with acetylcholinesterase inhibitors increase the concentration of acetycholine available to promote blood flow to the renal cortex preventing loss of nephrons and allowing existing renal parenchyma to provide the vital function of the kidney. Just as parasympathetic outflow provide homeostatic neural input to the elimination of function of the intestine, the same parasympathetic innervation provides vasodilatation of the small arterioles supplying the cortex of the kidneys allowing for optimal functioning.

[5] = tested on: patients with phantom pain; assay: Patient case histories: phantom pain following amputation; type: in vivo, human; conditions: donepizil 5 mg daily
Text: The present invention further provides a method of treating phantom pain following amputation in both upper and lower extremities. “Phantom pain” is a phenomenon described following amputation of either an upper or lower extremity. The sensation is common following amputation and present with varying degrees of discomfort and debility. A patient with phantom pain is typically treated with antidepressants, Neurontin® (gabapeninand) narcotics to a varying degree. The use of acetylcholinesterase inhibitors decreases the need for narcotics and generally eliminates the need for poly pharmacy improving pain, enhancing wound healing and improved sleep pattern in amputee patients. The dose of acetylcholinesterase inhibitor is titrated to GI (gastrointestinal) tolerance with bowel movement consistency and frequency the determining factors. Treatment with acetylcholinesterase inhibitor increases the available acetylcholine which is the neurotransmitter responsible for activation of the parasysmpathic nervous system appear responsible for Noxious symptoms of phantom pain for discomfort. The present invention provides a method of treating phantom pain associated with amputation of either upper or lower extremity.

[6] = tested on: patients with rheumatologic conditions (RA, SLE, PMR, polymyositis); assay: Patient case histories: rheumatological conditions; type: in vivo, human
Text: The use of an acetylcholinesterase inhibitor raises level of acetylcholine by inhibition of cholinesterase. The Increased levels of acetylcholine stimulate neuronal receptors of the parasympathetic nervous system and non-neuronal receptors associated with the intima of blood vessels and leukocytes. This dual effect of improving flow within the microvascular circulation and stabilization of leukocytes and their adhesion to the wall of blood vessel produces the anti-inflammatory effect that is observed with the use of an acetylcholinesterase inhibitor for treatment of rheumatologic diseases.

patients with lymphedema = type: in vivo, human; conditions: donepizil 5 mg orally daily
Text: The improvement in perfusion within the small arterioles decreases the hydrostatic pressure at the end arterioles and therefore reduces interstitial fluid accumulation that impedes the return of lymph fluid within the lymphatic vessels. The physics model for this phenomenon makes use of Bernouli's equation and its relationship to a Venturi tube. Hydrostatic pressure proximal to a relative stricture creates a pressure gradient that leads to increased transudation that overwhelms the capacity of the lymphatic system to manage. The vasodilatory effects of the parasympathetic nervous system upon small arterioles produces improved perfusion and lessens the accumulation of lymphedema. A common example of lymphedema occurs following joint replacement surgery with swelling that persists for three to six months and sometimes permanently. Lymphedema following joint replacement surgery slows recovery and creates pain while predisposing to deep vein thrombosis and infection.

[7] = tested on: patients with urinary retention; assay: Patient case histories: urinary retention (voiding trials, post void residuals)

In the case of `COc1cc2c(cc1OC)C(=O)C(CC1CCN(Cc3ccccc3)CC1)C2` (stereo not shown) [donepizil, 1-benzyl-4->(5,6-dimethoxy-1-indanon)-2-yl methylpiperidine], the “clinical outcome (pain, narcotic use)” value [1] is reported as “able to eliminate their use of long acting; also recorded: decreased pain complaints in their neck; also recorded: controlled without the use of narcotics or NSAID's; also recorded: improvement in their back pain complaints; also recorded: pain complaints were significantly reduced over a four-week period; also recorded: no recurrence of their back pain or leg cramps; also recorded: no recurrence of cramps”, the side effects [1] is reported as “no reported GI upset or diarrhea; also recorded: well tolerated; also recorded: no nausea or diarrhea” and the “course after dose reduction” value [2] is reported as “notable deterioration in their motor function and a return of Parkinsonian symptoms”. For the same compound, the “clinical outcome (vascular edema, ulcers, pain, foot temperature)” value ([3]; donepizil 5 mg daily, 2 weeks to >1 year, single patients, listed as donepezil) was “the heel ulcer completely resolved”, the side effects [3] was “no diarrhea or ulcer symptoms; also recorded: No serious untoward side effects were noted; also recorded: able to tolerate this treatment for the next 6 months; also recorded: No deleterious side effects such a diarrhea or acid reflux were noted; also recorded: no diarrhea or symptoms of gastrointestinal reflux; also recorded: without any untoward side effects; also recorded: without deleterious side affects such a diarrhea or acid reflux; also recorded: absence of any adverse side effects” and the side effects ([3]; listed as donepezil) was “without nausea/vomiting or diarrhea symptoms”. For the same compound, the “clinical outcome (ulcers, edema, phantom discomfort)” value ([3]; donepizil increased to 10 mg daily, additional one month (a person)) was “near complete healing of the leg ulcers and complete resolution of their edema”, the serum creatinine ([4]; donepizil 5 mg daily one month then 10 mg daily one month, before treatment 1.8) was 0.8 and the serum creatinine ([4]; donepizil 5 mg one week then 10 mg daily, two weeks of treatment, 5.5 on admission, on hemodialysis (Parkinson's patient)) was 4.2. For the same compound, the side effects ([4]; donepizil 5 mg orally daily) was “no untoward side effects; also recorded: no evidence of metabolic acidosis or hyperkalemia; also recorded: no adverse side effects”, the serum creatinine ([4]; donepizil 5 mg orally daily one month after switch from galantamine, 1.8 before any treatment) was 1.0 and the “BUN (blood urea nitrogen)” value ([4]; donepizil 5 mg orally daily one month after switch from galantamine, 32 before any treatment) was 14. For the same compound, the serum creatinine ([4]; donepizil 5 mg orally daily, 4 weeks/one month, before treatment 1.7, 1.8, 1.4, 1.6, 1.7) was 1.0 and 1.4 and 1.1 and 1.6 and 0.9, the serum creatinine ([4]; donepizil 5 mg orally daily, about 6 weeks, before treatment b104 1.4, b106 1.8) was 1.0 and 1.1 and the “BUN (blood urea nitrogen)” value ([4]; donepizil 5 mg orally daily, about 6 weeks, before treatment b104 37, b106 30) was 21 and 19. The serum creatinine ([4]; donepizil 5 mg orally daily, three weeks, before treatment 2.8, on lisinopril) was 1.4, the “BUN (blood urea nitrogen)” value ([4]; donepizil 5 mg orally daily, three weeks, before treatment 39) was 26 and the serum creatinine ([4]; donepizil 5 mg orally daily, two to three months, before treatment 1.7, 1.8, 1.7) was 1.1 and 0.9 and 1.2. The “BUN (blood urea nitrogen)” value ([4]; donepizil 5 mg orally daily, two to three months, before treatment b96 48, b110 35) was 20 and 19, the “BUN (blood urea nitrogen)” value ([4]; donepizil 5 mg orally daily, two weeks, before treatment 30) was 22 and the serum creatinine ([4]; donepizil 5 mg orally daily, up to two weeks, before treatment b100 1.6, b106 1.8) was 1.3. The serum creatinine ([4]; donepizil 10 mg daily continued for the next month, 5.5 on admission, hemodialysis discontinued) was 2.1, the “clinical outcome (phantom pain, sleep)” value [5] was “dramatic improvement in here phantom discomfort; also recorded: prompt improvement in their pain control; also recorded: phantom pain diminished to the point they no longer required Oxycotin®; also recorded: notable improvement in leg discomfort; also recorded: much improved phantom discomfort and improved sleep; also recorded: no symptoms of vascular insufficiency in their contralateral extremity” and the “clinical outcome (movement, pain, sleep, edema)” value ([6]; donepizil 5 mg orally daily) was “return of movement in their feet bilaterally; also recorded: improved sleep pattern and decreased pain; also recorded: edema previously noted in their feet bilaterally resolved; also recorded: became ambulatory; also recorded: improvement in their pain complaints and decreased swelling in their ankles bilaterally”. For the same compound, the “erythrocyte sedimentation rate (ESR), follow up” value ([6]; donepizil 5 mg orally daily, Polymyalgia Rheumatica) was “in the normal range”, the “clinical outcome (strength, swelling, vision)” value ([6]; donepizil 10 mg daily, Systemic Lupus Erythematosis) was “improved strength in their arms; also recorded: resolved as well as dysesthesias; also recorded: improved but not sufficient to allow for ambulation; also recorded: no return of vision; also recorded: return of movement in their feet bilaterally with decreased lower extremity swelling” and the post void residuals ([6]; donepizil 10 mg, SLE patient with urinary retention) was “less than 100 cc”. The side effects ([6]; donepizil 5-10 mg daily) was “no symptoms of diarrhea or nausea; also recorded: without incident, adverse side effects or deterioration in their condition; also recorded: no symptoms of diarrhea; also recorded: no untoward side effects”, the side effects (patients with lymphedema) was “suffered symptoms of diarrhea or nausea” and the “post void residuals (PVR's)” value ([7]; donepizil 5 mg orally daily with Detrol LA 2 mg orally daily) was “less than 100 cc”. For the same compound, the voiding trial ([7]; donepizil 5 mg orally daily, 24-48 hours or more before the trial) was “able to void without incident; also recorded: successful”.
